Reference: US8969081B2, “Caudal motor neuron derived from embryonic stem cells under conditions essentially free of any retinoid” (The Trustees of Columbia University in the City of New York, priority 2008, dated 2015)
“Also recorded” adds a separate entry of the source.

Tests used:
[1] = tested on: ES-MNs; assay: Columnar and divisional identity of ES-MNs (FoxP1, Lhx3, Lhx1 immunostaining); assay type: cell-based, mouse
Procedure: (§1) For immunocytochemical analysis, embryonic bodies (EBs) were dissociated using 0.05% Trypsin-EDTA on Day 6 and plated at low densities on laminin coated coverslips using ADFNB medium supplemented with 10 ng/ml Glial cell-derived neurotrophic factor (GDNF). For quantification of MN subtypes, EBs were collected on Day 6 and dissociated using 0.05 Trypsin-EDTA. Dissociated cells were plated on laminin coated coverslips using ADFNB medium (DMEM/F12, Neurobasal, 1 ml B27 50× supplement and optional 5 ng/ml of GDNF to enhance survival of MN cultures) and fixed with 4% PFA one day later.
(§2) Immunocytochemistry on ES cell-derived MNs and EBs was performed as previously described (Wichterle et al., 2002). Antibodies against the following proteins were used in the analysis during this study: Otx2, Hoxa5, Hoxc8, Hoxc6, Hoxc9, Hoxd9, Hoxd10, Foxp1, Lhx3, Pea3, Scip, NeuN, dsRed, NF.
For each experiment, 10 distinct randomized image fields were taken using a confocal microscope LSM Zeiss Meta 510. Expression of all markers used for quantifications was gated to GFP positive cells, ES cell-derived spinal MNs. Images were analyzed for the expression of the above stated markers in the context of the ES cell-derived caudal brachial MNs. Each quantification is the result of at least three independent experiments (three independent differentiation experiments). […]

[2] = tested on: differentiating ES cells / ES-MNs; assay: Rostro-caudal patterning of differentiating ES cells (Hox / positional marker immunostaining); assay type: cell-based, mouse
Procedure: Differentiation of cervical level motor neurons from mouse ES cells was performed as previously described (Wichterle et al., 2002). For differentiation of caudal brachial level MNs from ES cells, ES cells were grown in ES cell medium for two days, dissociated and plated into non-adherent tissue culture dishes using ADFNK medium at a density of 20,000 cells/ml. Medium is changed each day but not on Day 3 and Day 4 of differentiation (three and four days after dissociation of ES cells and plating into differentiation medium, respectively). Addition of any factors to differentiating embryonic bodies (EBs) was performed on Day 3. These included: 1 μg/ml Dickopf-1 Dkk1 (R&D Systems), FGF Receptor Inhibitor (PD173074, 100 nM final concentration), FGFb (Recombinant Human, FTF-basic, 120-17, PeproTech), rhGdf11 (R&D Systems, Cat#1958-GD). GDNF (10 ng/ml, R&D Systems) was supplemented on Day 5 of differentiation in selected cultures.
as §1, §2
For each experiment, 10 distinct randomized image fields were taken using a confocal microscope LSM Zeiss Meta 510. Expression of all markers used for quantifications was gated to GFP positive cells, ES cell-derived spinal MNs. Images were analyzed for the expression of the above stated markers in the context of the ES cell-derived caudal brachial MNs. Each quantification is the result of at least three independent experiments (three independent differentiation experiments).
All experiments were performed with HBG3 ES cell line harboring Hb9-GFP transgene (Wichterle et al., 2002) and key experiments were confirmed using a control MM13 ES cell line. Differentiation of HBG3 ES cell line under RA/Hh conditions into rostral cervical MNs was performed as previously described (Wichterle et al., 2002; Wichterle and Peljto, 2008). For production of cervical MNs, ES cells were plated at 50,000 cells/ml in ADFNK differentiation medium [Advanced D-MEM/F-12 (Invitrogen): Neurobasal medium (Invitrogen) (1:1), 10% Knockout Serum Replacement (Invitrogen), […] L-Glutamine (Invitrogen), 0.1 mM β-mercaptoethanol (Sigma), and Pen/Strep (Invitrogen)]. Medium was completely changed on days 1, 2 and of differentiation. EBs were split 1:4 on day 2 of differentiation and the medium was supplemented with 1 μM all-trans retinoic acid (RA, Sigma) and Hh agonist (0.5 μM SAG, Calbiochem or 1 μM HhAg1.3, (Frank-Kamenetsky et al., 2002)). To generate caudal brachial level MNs from ES cells under FGF/Hh conditions, ES cells were plated into non-adherent tissue culture dishes in ADFNK medium (˜20,000 cells/ml). Embryoid bodies (EBs) were split 1:4 on day 2 of differentiation and the medium was changed on days 1, 2 and 5. Selected cultures were supplemented with the following reagents: 10 nM-1 μM RA, 10 nM-1 μM Hh Agonist, 1 μg/ml recombinant mouse Dickkopf-1 (R&D Systems), 50-100 nM FGF/VEGF Receptor Tyrosine Kinase Inhibitor (PD173074, Calbiochem) (Mohammadi et al., 1998), 100-625 ng/ml recombinant human bFGF (PeproTech), 20 ng/ml recombinant human Gdf11/Bmp11 (R&D Systems), 10 ng/ml recombinant rat GDNF (R&D Systems). […]

[3] = tested on: Hb9-GFP ES cells; details: MNs generated in the presence of RA (Wichterle et al., 2002); cited from earlier work
[4] = tested on: embryoid bodies from ES cells; assay: Dorso-ventral progenitor marker expression in embryoid bodies; assay type: cell-based, mouse; details: 1 μM HhAg1.3, absence of RA
Procedure: as §2
To determine whether motor neuron progenitors are correctly specified at 1 μM concentrations of HhAg1.3 expression pattern of a series of DV progenitor markers were examined.
The endogenous Shh signaling centers have been identified as clusters of Foxa2+ cells expressing Shh (FIG. 2D).
Immunocytochemistry on dissociated ES-MNs and cryosectioned EBs was performed as previously described (Wichterle et al., 2002). In this study, the following antibodies were used: goat anti-Meis1 (Santa Cruz Biotechnology, SCB), mouse anti-Lhx3 (Developmental Studies Hybridoma Bank, DSHB), mouse anti-Lhx1/2 (DSHB), mouse anti-Nkx2.2 (DSHB), goat anti-Hoxc6 (SCB), rabbit anti-Hoxd9 (SCB), rabbit anti-Otx2 (kindly provided by G. Corte), mouse anti-Isl1 (DSHB), mouse anti-Hoxc 8 (DSHB), mouse anti-NeuN (Chemicon), rabbit anti-dsRed (Clontech), rabbit anti-Brachyury (SCB), mouse anti-Sonic Hedgehog (DSHB), mouse anti-FoxA2 (DSHB), mouse anti-Pax7 (DSHB), mouse anti-Hb9 (DSHB), guinea pig anti-Hb9 (kindly provided by the Project ALS laboratory). […]

[5] = tested on: Hb9-GFP ES cells; assay: Efficiency of motor neuron specification (Hb9-GFP+ cells); assay type: cell-based, mouse

Row | SMILES | FoxP1+ ES-MNs expressing Lhx1 ([1]; RA (1 μM) on day 5 of differentiation, analysed day 7) [%] | Lhx1+ BrdU- ES-MNs ([1]; RA on day 5, BrdU from day 5 onwards, dissociated day 6) [%] | Hoxc8 expression in ES-MNs, loss after RA ([2]; 10 nM RA on day 3 of differentiation, two independent experiments) [%] | Rostro-caudal positional marker expression / segmental identity ([2]; Example 1, EBs supplemented on Day 3, markers examined two to four days later) | Rostro-caudal identity of MNs after RA ([2]; Example 2, 10 nM-1 μM on day 3, stained day 7) | Rostro-caudal identity (Hoxc8+ ES-MNs) after late RA ([2]; RA on day 4 or 5 of differentiation) | HhAg1.3 concentration that efficiently induces cervical MNs [3] [µM] | Expression of Nkx2.2 and Foxa2 (Hnf3β) [4] | Expression of Pax7, Pax6 and Olig2 [4] | Percentage of Hb9-GFP+ cells with increasing Hh agonist ([5]; 10 nM, 50 nM, 100 nM, 1 μM on day 2, EBs dissociated day 7) | Motor neuron generation at high HhAg1.3 concentrations ([5]; ADFNK medium, >500 nM) | GFP positive MNs, % of all cells ([5]; ADFNK medium, absence or low concentrations of HhAg1.3 (<100 nM) added Day 2, Day 6)
1 | CC1=C(/C=C/C(C)=C/C=C/C(C)=C/C(=O)O)C(C)(C)CCC1 [RA, all-trans retinoic acid, reference compound] | 15 | ~10 | ~10 | induced rostral cervical identity characterized by Hoxa5 expression | specification of Hoxa5^+ rostral cervical MNs; also recorded: generation of Hoxa5^+ cervical MNs lacking expression of more posterior Hox genes | did not change the rostro-caudal positional identity; also recorded: does not result in significant changes in the numbers of Hoxc8^+ ES-MNs |  |  |  |  |  | 
2 | CNC1CCC(N(Cc2cccc(-c3ccncc3)c2)C(=O)c2sc3ccccc3c2Cl)CC1 (stereo not drawn) [HhAg1.3] |  |  |  |  |  |  | 0.5 to 2 | most cells within embryoid bodies expressed the ventral-most markers | not detected | does not significantly change the percentage of Hb9-GFP^+ cells | failure to generate motor neurons | 8-10%
